Patent publication US20130096170A1 (priority 2011, published 2013)
“Also recorded” adds a separate entry of the source.

Test system: prenatal Cynomolgus monkey brains (frontal cortex)
[1] = Group 2, 20 mg/kg im + 20-50 mg/kg/hr, 5 fetal brains examined

CNC1(c2ccccc2Cl)CCCCC1=O (centres unmarked) [ketamine]
Severity scoring of neuroapoptotic lesions, Activated caspase 3 [1]: 3.5 ± 0.7
Severity scoring of neuroapoptotic lesions, HE [1]: 1.9 ± 1.2
Severity scoring of neuroapoptotic lesions, Silver [1]: 2.0 ± 0.8
Severity scoring of neuroapoptotic lesions, TUNEL [1]: 2.9 ± 1.1
neuroapoptotic lesions / damaged and apoptotic cells in fetal frontal cortex (Group 2: 20 mg/kg IM+20-50 mg/kg/hr ketamine to pregnant monkeys, H&E, silver, TUNEL, AC3): abundant neuroapoptotic lesions; also recorded: moderate to large number of damaged and apoptotic cells; also recorded: marked neuroapoptosis and cellular damage with necrosis
